Results taken from the NIST ThermoML archive (doi:10.1021/je200721d).

Experiment: xn = mol fraction of the nth substance listed
Conditions: Liquid, Vibrating tube method

CCCCCCCCCC [decane] + CCCCCC
Conditions	mass density [kg/m3]
313.08 K, 1000 kPa, x2 = 0.8991	654.3
313.08 K, 2000 kPa, x2 = 0.8991	655.28
313.08 K, 3000 kPa, x2 = 0.8991	656.28
313.08 K, 4000 kPa, x2 = 0.8991	657.3
313.08 K, 5000 kPa, x2 = 0.8991	658.33
313.08 K, 6000 kPa, x2 = 0.8991	659.37
313.08 K, 7000 kPa, x2 = 0.8991	660.42
313.08 K, 8000 kPa, x2 = 0.8991	661.47
313.08 K, 9000 kPa, x2 = 0.8991	662.52
313.08 K, 10000 kPa, x2 = 0.8991	663.56
313.08 K, 11000 kPa, x2 = 0.8991	664.61
313.08 K, 12000 kPa, x2 = 0.8991	665.63
313.08 K, 13000 kPa, x2 = 0.8991	666.66
313.08 K, 14000 kPa, x2 = 0.8991	667.66
313.08 K, 15000 kPa, x2 = 0.8991	668.63
313.08 K, 16000 kPa, x2 = 0.8991	669.61
313.08 K, 17000 kPa, x2 = 0.8991	670.54
313.08 K, 18000 kPa, x2 = 0.8991	671.45
313.08 K, 19000 kPa, x2 = 0.8991	672.34
313.08 K, 20000 kPa, x2 = 0.8991	673.21
313.08 K, 21000 kPa, x2 = 0.8991	674.04
313.08 K, 22000 kPa, x2 = 0.8991	674.91
313.08 K, 23000 kPa, x2 = 0.8991	675.69
313.08 K, 24000 kPa, x2 = 0.8991	676.48
313.08 K, 25000 kPa, x2 = 0.8991	677.31
313.17 K, 1000 kPa, x2 = 0.2185	704.92
313.17 K, 2000 kPa, x2 = 0.2185	705.74
313.17 K, 3000 kPa, x2 = 0.2185	706.66
313.17 K, 4000 kPa, x2 = 0.2185	707.53
313.17 K, 5000 kPa, x2 = 0.2185	708.39
313.17 K, 6000 kPa, x2 = 0.2185	709.25
313.17 K, 7000 kPa, x2 = 0.2185	710.11
313.17 K, 8000 kPa, x2 = 0.2185	710.96
313.17 K, 9000 kPa, x2 = 0.2185	711.8
313.17 K, 10000 kPa, x2 = 0.2185	712.63
313.17 K, 10990 kPa, x2 = 0.2185	713.46
313.17 K, 12000 kPa, x2 = 0.2185	714.27
313.17 K, 13000 kPa, x2 = 0.2185	715.05
313.17 K, 14000 kPa, x2 = 0.2185	715.84
313.17 K, 15000 kPa, x2 = 0.2185	716.63
313.17 K, 16000 kPa, x2 = 0.2185	717.4
313.17 K, 17000 kPa, x2 = 0.2185	718.15
313.17 K, 18000 kPa, x2 = 0.2185	718.88
313.17 K, 19000 kPa, x2 = 0.2185	719.62
313.17 K, 20000 kPa, x2 = 0.2185	720.34
313.17 K, 21000 kPa, x2 = 0.2185	721.06
313.17 K, 22000 kPa, x2 = 0.2185	721.76
313.17 K, 23000 kPa, x2 = 0.2185	722.46
313.17 K, 24000 kPa, x2 = 0.2185	723.13
313.17 K, 25000 kPa, x2 = 0.2185	723.78
313.18 K, 1000 kPa, x2 = 0.0456	713.33
313.18 K, 1000 kPa, x2 = 0.7524	668.32
313.18 K, 2000 kPa, x2 = 0.0456	714.22
313.18 K, 2000 kPa, x2 = 0.7524	669.4
313.18 K, 3000 kPa, x2 = 0.0456	715.11
313.18 K, 3000 kPa, x2 = 0.7524	670.46
313.18 K, 4000 kPa, x2 = 0.0456	715.98
313.18 K, 4000 kPa, x2 = 0.7524	671.5
313.18 K, 5000 kPa, x2 = 0.0456	716.84
313.18 K, 5000 kPa, x2 = 0.7524	672.55
313.18 K, 6000 kPa, x2 = 0.0456	717.69
313.18 K, 6000 kPa, x2 = 0.7524	673.61
313.18 K, 7000 kPa, x2 = 0.0456	718.53
313.18 K, 7000 kPa, x2 = 0.7524	674.58
313.18 K, 8000 kPa, x2 = 0.0456	719.34
313.18 K, 8000 kPa, x2 = 0.7524	675.56
313.18 K, 9000 kPa, x2 = 0.0456	720.15
313.18 K, 9000 kPa, x2 = 0.7524	676.55
313.18 K, 10000 kPa, x2 = 0.0456	720.95
313.18 K, 10000 kPa, x2 = 0.7524	677.5
313.18 K, 10990 kPa, x2 = 0.0456	721.74
313.18 K, 10990 kPa, x2 = 0.7524	678.44
313.18 K, 12000 kPa, x2 = 0.0456	722.51
313.18 K, 12000 kPa, x2 = 0.7524	679.36
313.18 K, 13000 kPa, x2 = 0.0456	723.28
313.18 K, 13000 kPa, x2 = 0.7524	680.27
313.18 K, 14000 kPa, x2 = 0.0456	724.03
313.18 K, 14000 kPa, x2 = 0.7524	681.18
313.18 K, 15000 kPa, x2 = 0.0456	724.78
313.18 K, 15000 kPa, x2 = 0.7524	682.08
313.18 K, 16000 kPa, x2 = 0.0456	725.51
313.18 K, 16000 kPa, x2 = 0.7524	682.96
313.18 K, 17000 kPa, x2 = 0.0456	726.24
313.18 K, 17000 kPa, x2 = 0.7524	683.82
313.18 K, 18000 kPa, x2 = 0.0456	726.96
313.18 K, 18000 kPa, x2 = 0.7524	684.65
313.18 K, 19000 kPa, x2 = 0.0456	727.67
313.18 K, 19000 kPa, x2 = 0.7524	685.47
313.18 K, 20000 kPa, x2 = 0.0456	728.36
313.18 K, 20000 kPa, x2 = 0.7524	686.29
313.18 K, 21000 kPa, x2 = 0.0456	729.05
313.18 K, 21000 kPa, x2 = 0.7524	687.07
313.18 K, 22000 kPa, x2 = 0.0456	729.74
